# Source: US20230130132A1, “PHARMACEUTICAL COMPOSITIONS COMPRISING AMPHIPHILIC PEPTIDES AND METHODS OF USE THEREOF” (BONE SCI. BIO LTD., priority 2020, published 2023)
# No end group written: not given here.
# What was measured:
# [1] = PFD5 sodium dissolved in HCl: peptide to acid mole ratio for stable hydrogel, pKa; format: physicochemical; settings: aqueous HCl solution (hydrogel); 1% (w/v) PFD5; pH at which half of the Asp residues are assumed protonated
# Method: Different mole ratios of PFD5 sodium to HCl were generated by dissolving the peptide in an HCl solution using a magnetic stirrer. Following mixing for a few minutes, hydrogel formation was tested (Table 2 and FIG. 1A-1B). […] At a 1:6 ratio, the stable hydrogel appeared opaquer.
# At a 1:4 ratio, the stable hydrogel appeared opaquer.
# At this peptide concentration, the mole ratio of the peptide to acid was determined to be 1:1.67 to afford a stable clear hydrogel (FIG. 1B).
# [2] = pH of the composition; format: physicochemical; settings: 5% w/v in deionized water, clear solution
pKa [1],pH of solution [2],Substance
~5.95,,"PDFDFDFDFDFDP [PFD5, Pro-(Asp-Phe)5-Asp-Pro]"
,1.93,Doxycycline hyclate
